Data: patent US5001160A (priority 1989, dated 1991)
Where a name gives a salt, the structure may show the parent alone.

These molecules were tested on bladder contraction (PvesP) (assay: not given). Conditions: guinea pig, in vivo, iv.

SMILES	T1/2 for recovery toward control level of the PvesP contraction strength parameter
CN1CCN(CC(=O)C(O)(c2ccccc2)C2CCCCC2)CC1 (centres unmarked) [1-Cyclohexyl-1-hydroxy-3-(4-methyl-1-piperazinyl)-1-phenyl-2-propanone]	3.6 ± 0.3 h

What follows are molecules tested against postsynaptic muscarinic cholinergic receptors (bladder detrusor muscle) (Cavia porcellus, UniProt H0W1Z3) (assay: cell-based). Conditions: not given.
Set-up: species or system guinea pig

Sequence of postsynaptic muscarinic cholinergic receptors (bladder detrusor muscle) (H0W1Z3 1-590): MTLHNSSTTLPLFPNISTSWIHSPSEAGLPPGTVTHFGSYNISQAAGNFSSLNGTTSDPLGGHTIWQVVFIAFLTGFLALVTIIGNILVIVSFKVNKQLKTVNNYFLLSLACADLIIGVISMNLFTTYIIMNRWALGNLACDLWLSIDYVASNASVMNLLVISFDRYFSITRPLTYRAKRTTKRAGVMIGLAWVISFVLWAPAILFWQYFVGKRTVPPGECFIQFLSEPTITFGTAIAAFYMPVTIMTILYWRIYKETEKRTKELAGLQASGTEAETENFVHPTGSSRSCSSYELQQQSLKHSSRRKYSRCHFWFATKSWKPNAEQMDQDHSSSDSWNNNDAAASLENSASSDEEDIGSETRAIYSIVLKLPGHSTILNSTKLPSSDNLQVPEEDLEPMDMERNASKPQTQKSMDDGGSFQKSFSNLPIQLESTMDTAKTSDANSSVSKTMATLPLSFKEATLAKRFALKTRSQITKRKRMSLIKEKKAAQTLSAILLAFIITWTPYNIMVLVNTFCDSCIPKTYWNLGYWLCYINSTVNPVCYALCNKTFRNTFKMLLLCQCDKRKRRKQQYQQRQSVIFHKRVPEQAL

SMILES	Kb
O=C(CN1CCNCC1)C(O)(c1ccccc1)C1CCC1 (centres unmarked) [1-Cyclobutyl-1-hydroxy-1-phenyl-3-piperazinyl-2-propanone Dihydrochloride]	86 nM
C=CCN1CCN(CC(=O)C(O)(c2ccccc2)C2CCC2)CC1 (centres unmarked) [1-Cyclobutyl-1-hydroxy-3-(4-allyl-1-piperazinyl)-1-phenyl-2-propanone Dihydrochloride]	65 nM
O=C(CN1CCN(C(c2ccccc2)c2ccccc2)CC1)C(O)(c1ccccc1)C1CCC1 (centres unmarked) [1-Cyclobutyl-1-hydroxy-3-(4-benzyhydryl-1-piperazinyl)-1-phenyl-2-propanoneDihydrochloride]	No Effect at 1 μM
O=C(CN1CCN(C2CCC2)CC1)C(O)(c1ccccc1)C1CCC1 (centres unmarked) [1-Cyclobutyl-1-hydroxy-3-(4-cyclobutyl-1-piperazinyl)-1-phenyl-2-propanone Dihydrochloride]	230 nM
CCOC(=O)N1CCN(CC(=O)C(O)(c2ccccc2)C2CCC2)CC1.Cl (centres unmarked) [1-Cyclobutyl-1-hydroxy-3-(4-ethoxycarbonyl-1-piperazinyl)-1-phenyl-2-propanone Hydrochloride]	No Effect at 1 μM
CN1CCN(CC(=O)C(O)(c2ccccc2)C2CCC2)CC1 (centres unmarked) [1-Cyclobutyl-1-hydroxy-3-(4-methyl-1-piperazinyl)-1-phenyl-2-propanone Dihydrochloride]	24.9 nM
Cl.Cl.O=C(CN1CCN(c2ccccc2)CC1)C(O)(c1ccccc1)C1CCC1 (centres unmarked) [1-Cyclobutyl-1-hydroxy-3-(4-phenyl-1-piperazinyl)-1-phenyl-2-propanone Dihydrochloride]	No Effect at 1 μM
CCCN1CCN(CC(=O)C(O)(c2ccccc2)C2CCC2)CC1 (centres unmarked) [1-Cyclobutyl-1-hydroxy-3-(4-propyl-1-piperazinyl)-1-phenyl-2-propanone Dihydrochloride]	673 nM
O=C(CN1CCN(CC(=O)C(O)(c2ccccc2)C2CCC2)CC1)N1CCCC1 (centres unmarked) [1-Cyclobutyl-1-hydroxy-3-(4-pyrrolidino-carbonylmethyl-1-piperazinyl)-1-phenyl-2-propanone Dihydrochloride]	210 nM
CCOc1ccccc1N1CCN(CC(=O)C(O)(c2ccccc2)C2CCC2)CC1.Cl.Cl (centres unmarked) [1-Cyclobutyl-1-hydroxy-3-[4-(2-ethoxyphenyl)-1-piperazinyl]-1-phenyl-2-propanone Dihydrochloride]	No Effect at 1 μM
O=C(CN1CCN(CCO)CC1)C(O)(c1ccccc1)C1CCC1 (centres unmarked) [1-Cyclobutyl-1-hydroxy-3-[4-(2-hydroxyethyl)-1-piperazinyl]-1-phenyl-2-propanone Dihydrochloride]	201 nM
COc1ccccc1N1CCN(CC(=O)C(O)(c2ccccc2)C2CCC2)CC1.Cl.Cl (centres unmarked) [1-Cyclobutyl-1-hydroxy-3-[4-(2-methoxyphenyl)-1-piperazinyl]-1-phenyl-2-propanone Dihydrochloride]	No Effect at 1 μM
C=C(C)CN1CCN(CC(=O)C(O)(c2ccccc2)C2CCC2)CC1 (centres unmarked) [1-Cyclobutyl-1-hydroxy-3-[4-(2-methyl-2-propenyl)-1-piperazinyl]1-phenyl-2-propanone Dihydrochloride]	100 nM
C=CCCN1CCN(CC(=O)C(O)(c2ccccc2)C2CCC2)CC1 (centres unmarked) [1-Cyclobutyl-1-hydroxy-3-[4-(3-butenyl)-1-piperazinyl]-1-phenyl-2-propanoneDihydrochloride]	35 nM
CC(C)=CCN1CCN(CC(=O)C(O)(c2ccccc2)C2CCC2)CC1 (centres unmarked) [1-Cyclobutyl-1-hydroxy-3-[4-(3-methyl-2-butenyl)-1-piperazinyl]-1-phenyl-2-propanone Dihydrochloride]	19 nM
O=C(CN1CCN(Cc2ccc(Cl)cc2)CC1)C(O)(c1ccccc1)C1CCC1 (centres unmarked) [1-Cyclobutyl-1-hydroxy-3-[4-(4-chlorobenzyl)-]1-piperazinyl]-1-phenyl-2-propanone Dihydrochloride]	16 nM
Cc1ccc(CN2CCN(CC(=O)C(O)(c3ccccc3)C3CCC3)CC2)cc1 (centres unmarked) [1-Cyclobutyl-1-hydroxy-3-[4-(4-methylbenzyl)-]1-piperazinyl]-1-phenyl-2-propanone Dihydrochloride]	9.1 nM
O=C(CN1CCN(Cc2ccc([N+](=O)[O-])cc2)CC1)C(O)(c1ccccc1)C1CCC1 (centres unmarked) [1-Cyclobutyl-1-hydroxy-3-[4-(4-nitrobenzyl)-1-piperazinyl]-1-phenyl-2-propanone Dihydrochloride]	83 nM
Cl.Cl.O=C(CN1CCN(c2ccc([N+](=O)[O-])cc2)CC1)C(O)(c1ccccc1)C1CCC1 (centres unmarked) [1-Cyclobutyl-1-hydroxy-3-[4-(4-nitrophenyl)-1-piperazinyl]-1-phenyl-2-propanone Dihydrochloride]	No Effect at 1 μM
C=CCN1CCN(CC(=O)C(O)(c2ccccc2)C2CCCCC2)CC1 (centres unmarked) [1-Cyclohexyl-1-hydroxy-3-(4-allyl-1-piperazinyl)-1-phenyl-2-propanone Dihydrochloride]	26 nM
CN1CCN(CC(=O)C(O)(c2ccccc2)C2CCCCC2)CC1 (centres unmarked) [1-Cyclohexyl-1-hydroxy-3-(4-methyl-1-piperazinyl)-1-phenyl-2-propanone]	25.9 ± 5.3 nM
O=C(CN1CCN(CCO)CC1)C(O)(c1ccccc1)C1CCCCC1 (centres unmarked) [1-Cyclohexyl-1-hydroxy-3-[4-(2-hydroxyethyl)-1-piperazinyl]-1-phenyl-2-propanone Dihydrochloride]	96 nM
